Reference: US8563593B2, “Formulations of (R)-1-(2,2-difluorobenzo[D] [1,3] dioxol-5-yl)-N-(1-(2,3-dihydroxypropyl)-6-fluoro-2-(1-hydroxy-2-methylpropan-2-yl)-1H-indol-5-yl)cyclopropanecarboxamide” (Vertex Pharmaceuticals Incorporated, priority 2010, dated 2013)

Assays:
ΔF508-CFTR = molecular target: T1, ΔF508-CFTR (Homo sapiens, UniProt P13569, DEL508-508); assay: Assays for detecting and measuring ΔF508-CFTR correction properties (membrane potential optical assay); type: cell-based; conditions: PercentActivity; NIH3T3 mouse fibroblasts stably expressing ΔF508-CFTR
T1 construct: expressed in transfected cells
T1 sequence (P13569 with tags, fused parts or gaps DEL508-508): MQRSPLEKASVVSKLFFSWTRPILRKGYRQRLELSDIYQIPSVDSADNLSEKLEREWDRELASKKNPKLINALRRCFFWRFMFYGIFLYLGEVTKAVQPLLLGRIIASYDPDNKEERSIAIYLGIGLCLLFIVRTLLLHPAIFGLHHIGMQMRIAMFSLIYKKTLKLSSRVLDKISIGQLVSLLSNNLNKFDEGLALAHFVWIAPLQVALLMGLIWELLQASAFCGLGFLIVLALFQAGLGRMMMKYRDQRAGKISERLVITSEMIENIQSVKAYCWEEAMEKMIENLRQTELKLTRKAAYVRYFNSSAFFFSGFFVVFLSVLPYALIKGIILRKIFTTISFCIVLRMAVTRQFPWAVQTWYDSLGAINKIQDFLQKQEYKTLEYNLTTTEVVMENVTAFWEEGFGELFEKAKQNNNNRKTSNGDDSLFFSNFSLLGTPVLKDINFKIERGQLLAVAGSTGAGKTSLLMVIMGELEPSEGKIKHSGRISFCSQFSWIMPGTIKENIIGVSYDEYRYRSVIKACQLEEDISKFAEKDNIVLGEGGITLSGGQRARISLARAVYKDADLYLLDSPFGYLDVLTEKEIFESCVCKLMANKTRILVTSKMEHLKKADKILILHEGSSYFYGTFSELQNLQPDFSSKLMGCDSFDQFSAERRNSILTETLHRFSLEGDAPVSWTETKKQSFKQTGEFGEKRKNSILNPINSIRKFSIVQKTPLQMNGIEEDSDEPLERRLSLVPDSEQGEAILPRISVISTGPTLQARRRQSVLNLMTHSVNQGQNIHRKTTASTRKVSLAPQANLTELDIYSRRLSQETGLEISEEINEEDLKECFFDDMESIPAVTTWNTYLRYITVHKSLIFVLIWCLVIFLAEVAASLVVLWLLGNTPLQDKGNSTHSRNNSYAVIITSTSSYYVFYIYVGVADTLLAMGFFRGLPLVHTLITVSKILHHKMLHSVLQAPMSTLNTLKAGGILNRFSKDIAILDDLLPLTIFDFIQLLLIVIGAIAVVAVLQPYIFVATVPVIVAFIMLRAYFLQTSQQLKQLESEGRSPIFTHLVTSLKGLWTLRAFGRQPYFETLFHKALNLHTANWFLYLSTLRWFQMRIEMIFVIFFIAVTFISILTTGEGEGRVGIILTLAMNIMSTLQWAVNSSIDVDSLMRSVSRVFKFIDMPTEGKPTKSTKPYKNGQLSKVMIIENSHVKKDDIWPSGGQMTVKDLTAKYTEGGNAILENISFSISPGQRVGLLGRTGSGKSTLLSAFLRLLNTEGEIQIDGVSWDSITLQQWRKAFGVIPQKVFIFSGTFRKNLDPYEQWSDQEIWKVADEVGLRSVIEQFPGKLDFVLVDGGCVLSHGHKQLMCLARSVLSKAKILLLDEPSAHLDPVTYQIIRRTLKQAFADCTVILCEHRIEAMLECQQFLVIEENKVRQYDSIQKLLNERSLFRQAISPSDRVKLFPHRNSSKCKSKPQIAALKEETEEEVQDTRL
From the text: Assays for Detecting and Measuring ΔF508-CFTR Correction Properties of Compounds
Membrane Potential Optical Methods for Assaying ΔF508-CFTR Modulation Properties of Compounds
The optical membrane potential assay utilized voltage-sensitive FRET sensors described by Gonzalez and Tsien (See Gonzalez, J. E. and R. Y. Tsien (1995) “Voltage sensing by fluorescence resonance energy transfer in single cells” Biophys J 69(4): 1272-80, and Gonzalez, J. E. and R. Y. Tsien (1997) “Improved indicators of cell membrane potential that use fluorescence resonance energy transfer” Chem Biol 4(4): 269-77) in combination with instrumentation for measuring fluorescence changes such as the Voltage/Ion Probe Reader (VIPR) (See, Gonzalez, J. E., K. Oades, et al. (1999) “Cell-based assays and instrumentation for screening ion-channel targets” Drug Discov Today 4(9): 431-439).
These voltage sensitive assays are based on the change in fluorescence resonant energy transfer (FRET) between the membrane-soluble, voltage-sensitive dye, DiSBAC2(3), and a fluorescent phospholipid, CC2-DMPE, which is attached to the outer leaflet of the plasma membrane and acts as a FRET donor. […] The changes in fluorescence emission were monitored using VIPR™ II, which is an integrated liquid handler and fluorescent detector designed to conduct cell-based screens in 96- or 384-well microtiter plates. […]

[1] = Solubility of Compound 1 with and without PEG cosolvent and vitamin E TPGS; type: physicochemical
From the text: The PEG cosolvent and vitamin E TPGS induced micelle formation increase Compound 1 solubility from 7 micrograms to several milligrams per g of solution.

SMILES: CC(C)(CO)c1cc2cc(NC(=O)C3(c4ccc5c(c4)OC(F)(F)O5)CC3)c(F)cc2n1C[C@@H](O)CO [Compound 1, (R)-1-(2,2-difluorobenzo[d][1,3]dioxol-5-yl)-N-(1-(2,3-dihydroxypropyl)-6-fluoro-2-(1-hydroxy-2-methylpropan-2-yl)-1H-indol-5-yl)cyclopropanecarboxamide]
- Binned MaxEfficacy (ΔF508-CFTR): +++ (PercentActivity Bins: + <= 25.0 < ++ <= 100.0 < +++)
- Compound 1 solubility ([1]; with PEG cosolvent and vitamin E TPGS induced micelle formation): several
- Compound 1 solubility ([1]; without PEG cosolvent and vitamin E TPGS): 7 micrograms per g of solution
